Test results: PubChem BioAssay AID330 (DTP/NCI, 2004)
Where “and” joins values, the source holds several entries; their conditions need not be identical. Identical values can stand only once. Toxic doses and inconclusive results are not listed.

System: P388 leukemia ip, CD2F1 mice, survival T/C
Experiment: NCI In Vivo Anticancer Drug Screen. Data for tumor model P388 Leukemia (intraperitoneal) in CD2F1 (CDF1) mice
Conditions: endpoint: median survival time, higher = longer survival
Summary of the method: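 Mice carrying the transplanted tumor received test compound or vehicle. Survival was recorded in each group, and the value is the treated-group measurement divided by that of the vehicle-treated control group.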

[1] = dose: 50.0 mg/kg/injection, schedule: Q01DX005 (ip), vehicle: Klucel (hydroxypropylcellulose) (HPC)
[2] = dose: 100.0 mg/kg/injection, schedule: Q01DX005 (ip), vehicle: Klucel (hydroxypropylcellulose) (HPC)
[3] = dose: 200.0 mg/kg/injection, schedule: Q01DX005 (ip), vehicle: Klucel (hydroxypropylcellulose) (HPC)

`c1ccc(SCc2ccc3c(c2)OCO3)cc1` was tested, and the T/C (dose: 100.0 mg/kg/injection, schedule: Q01DX001 (ip), vehicle: Klucel (hydroxypropylcellulose) (HPC)) was 107 % of control, the T/C (dose: 200.0 mg/kg/injection, schedule: Q01DX001 (ip), vehicle: Klucel (hydroxypropylcellulose) (HPC)) was 102 % of control and the T/C (dose: 400.0 mg/kg/injection, schedule: Q01DX001 (ip), vehicle: Klucel (hydroxypropylcellulose) (HPC)) was 100 % of control.

With `COc1ccc([I+]c2ccccc2)cc1` the T/C (dose: 1.5 mg/kg/injection, schedule: Q01DX009 (ip), vehicle: saline) was 109 % of control, the T/C (dose: 2.5 mg/kg/injection, schedule: Q01DX009 (ip), vehicle: saline sonified) was 100 % of control and the T/C (dose: 3.0 mg/kg/injection, schedule: Q01DX009 (ip), vehicle: saline) was 109 % of control. For the same molecule, the T/C (dose: 6.0 mg/kg/injection, schedule: Q01DX009 (ip), vehicle: saline) was 122 % of control.

`COc1cc2c(c3c1c(=O)c1ccc(F)cc1n3C)C=CC(C)(C)O2` was tested, and the T/C [1] was 98 % of control, the T/C [2] was 108 % of control and the T/C [3] was 109 % of control.

In the case of `CC(=O)Oc1ccc(OC(C)=O)c2cc3c(cc12)C(=O)C(C)=C(C)C3=O`, the T/C [1] is reported as 89 % of control, the T/C [2] is reported as 97 % of control and the T/C [3] is reported as 111 % of control.

With `C=C(CN(C)C)C(=O)c1ccccc1` the T/C (dose: 0.94 mg/kg/injection, schedule: Q01DX005 (ip), vehicle: saline) was 122 % of control, the T/C (dose: 1.25 mg/kg/injection, schedule: Q01DX005 (ip), vehicle: saline) was 112 % of control and the T/C (dose: 1.88 mg/kg/injection, schedule: Q01DX005 (ip), vehicle: saline) was 112 % of control. For the same molecule, the T/C (dose: 2.5 mg/kg/injection, schedule: Q01DX005 (ip), vehicle: saline) was 112 % of control, the T/C (dose: 3.75 mg/kg/injection, schedule: Q01DX005 (ip), vehicle: saline) was 99 % of control and 97 % of control and the T/C (dose: 5.0 mg/kg/injection, schedule: Q01DX005 (ip), vehicle: saline) was 98 % of control and 104 % of control.

In the case of `NCCCCS(=O)(=O)Nc1ccc(Nc2c3ccccc3nc3cc([N+](=O)[O-])ccc23)cc1`, the T/C (dose: 22.0 mg/kg/injection, schedule: Q04DX003 (ip), vehicle: saline) is reported as 122 % of control, the T/C (dose: 38.9 mg/kg/injection, schedule: Q04DX003 (ip), vehicle: water) is reported as 164 % of control and the T/C (dose: 50.0 mg/kg/injection, schedule: Q04DX003 (ip), vehicle: saline) is reported as 150 % of control. The T/C (dose: 64.8 mg/kg/injection, schedule: Q04DX003 (ip), vehicle: water) was 180 % of control, the T/C (dose: 75.0 mg/kg/injection, schedule: Q04DX003 (ip), vehicle: saline) was 150 % of control and the T/C (dose: 108.0 mg/kg/injection, schedule: Q04DX003 (ip), vehicle: water) was 198 % of control. For the same molecule, the T/C (dose: 150.0 mg/kg/injection, schedule: Q04DX003 (ip), vehicle: saline) was 172 % of control, the T/C (dose: 180.0 mg/kg/injection, schedule: Q04DX003 (ip), vehicle: water) was 99 % of control and the T/C (dose: 300.0 mg/kg/injection, schedule: Q04DX003 (ip), vehicle: saline) was 118 % of control.

For `CC(C)N1COC2Cc3ccccc3CC21` (centres undefined), the T/C (dose: 6.25 mg/kg/injection, schedule: Q01DX005 (ip), vehicle: saline) was 99 % of control, the T/C (dose: 12.5 mg/kg/injection, schedule: Q01DX005 (ip), vehicle: saline) was 101 % of control and the T/C (dose: 25.0 mg/kg/injection, schedule: Q01DX005 (ip), vehicle: saline) was 101 % of control and 110 % of control. The T/C (dose: 50.0 mg/kg/injection, schedule: Q01DX005 (ip), vehicle: saline) was 117 % of control and 120 % of control and 121 % of control.

`CC(CN(C)C)C(/C=C/c1ccc(Cl)cc1)=N\NC(=O)c1ccccc1` (centres undefined) was tested, and the T/C (dose: 15.0 mg/kg/injection, schedule: Q01DX005 (ip), vehicle: saline) was 101 % of control, the T/C (dose: 30.0 mg/kg/injection, schedule: Q01DX005 (ip), vehicle: saline) was 100 % of control and the T/C (dose: 60.0 mg/kg/injection, schedule: Q01DX005 (ip), vehicle: saline) was 104 % of control and 121 % of control. The T/C (dose: 120.0 mg/kg/injection, schedule: Q01DX005 (ip), vehicle: saline) was 114 % of control.

With `O=C1c2ccccc2CCCC12OC2c1ccccn1` (centres undefined) the T/C (dose: 25.0 mg/kg/injection, schedule: Q01DX009 (ip), vehicle: Klucel (hydroxypropylcellulose) (HPC)) was 98 % of control, the T/C (dose: 50.0 mg/kg/injection, schedule: Q01DX009 (ip), vehicle: Klucel (hydroxypropylcellulose) (HPC)) was 106 % of control and the T/C (dose: 100.0 mg/kg/injection, schedule: Q01DX009 (ip), vehicle: Klucel (hydroxypropylcellulose) (HPC)) was 98 % of control.

With `O=c1[nH]c2ccccc2[nH]c1=O` the T/C (dose: 50.0 mg/kg/injection, schedule: Q01DX009 (ip), vehicle: saline) was 100 % of control, the T/C (dose: 100.0 mg/kg/injection, schedule: Q01DX009 (ip), vehicle: saline with Tween-80) was 94 % of control and the T/C (dose: 200.0 mg/kg/injection, schedule: Q01DX009 (ip), vehicle: saline with Tween-80) was 92 % of control. For the same molecule, the T/C (dose: 200.0 mg/kg/injection, schedule: Q01DX009 (ip), vehicle: saline) was 100 % of control and 97 % of control and the T/C (dose: 400.0 mg/kg/injection, schedule: Q01DX009 (ip), vehicle: saline) was 88 % of control.
